According to the NIST ThermoML archive (doi:10.1021/je050509f):

Experiment: mn = molality of the nth substance listed, in mol/kg
Settings: Liquid, Vibrating tube method

[Cl-].[Cl-].[Zn+2] [zinc chloride] + CO
Settings	mass density [kg/m3]
298.27 K, 170 kPa, m1 = 0.8018	861.37
298.27 K, 188 kPa, m1 = 0.4768	833.84
298.27 K, 200 kPa, m1 = 5.367	1205.67
298.27 K, 203 kPa, m1 = 1.039	881.26
298.27 K, 205 kPa, m1 = 0.1348	801.32
298.27 K, 205 kPa, m1 = 1.977	959.59
298.27 K, 4983 kPa, m1 = 5.367	1209.53
298.27 K, 4985 kPa, m1 = 1.039	885.56
298.27 K, 4994 kPa, m1 = 0.4768	838
298.27 K, 4996 kPa, m1 = 0.8018	865.98
298.27 K, 5004 kPa, m1 = 0.1348	805.97
298.27 K, 5014 kPa, m1 = 1.977	963.97
298.27 K, 9992 kPa, m1 = 5.367	1213.48
298.27 K, 9995 kPa, m1 = 0.8018	870.53
298.27 K, 9996 kPa, m1 = 1.977	968.35
298.27 K, 9997 kPa, m1 = 1.039	889.93
298.27 K, 10000 kPa, m1 = 0.1348	810.57
298.27 K, 10004 kPa, m1 = 0.4768	841.99
298.27 K, 14982 kPa, m1 = 0.4768	845.9
298.27 K, 14987 kPa, m1 = 1.039	894.12
298.27 K, 14995 kPa, m1 = 5.367	1217.3
298.27 K, 14997 kPa, m1 = 1.977	972.58
298.27 K, 15000 kPa, m1 = 0.8018	874.88
298.27 K, 15010 kPa, m1 = 0.1348	814.96
298.27 K, 19985 kPa, m1 = 1.039	898.15
298.27 K, 19988 kPa, m1 = 5.367	1221.03
298.27 K, 19989 kPa, m1 = 1.977	976.63
298.27 K, 20001 kPa, m1 = 0.8018	879.03
298.27 K, 20007 kPa, m1 = 0.1348	819.13
298.27 K, 20018 kPa, m1 = 0.4768	849.66
298.27 K, 24988 kPa, m1 = 0.8018	883.01
298.27 K, 24993 kPa, m1 = 1.977	980.56
298.27 K, 24996 kPa, m1 = 5.367	1224.68
298.27 K, 24999 kPa, m1 = 0.1348	823.11
298.27 K, 25003 kPa, m1 = 1.039	902.02
298.27 K, 25032 kPa, m1 = 0.4768	853.57
298.27 K, 29990 kPa, m1 = 1.977	984.35
298.27 K, 29994 kPa, m1 = 5.367	1228.21
298.27 K, 30002 kPa, m1 = 0.1348	826.95
298.27 K, 30004 kPa, m1 = 0.4768	857.56
298.27 K, 30004 kPa, m1 = 0.8018	886.87
298.27 K, 30007 kPa, m1 = 1.039	905.8
298.27 K, 34983 kPa, m1 = 1.039	909.4
298.27 K, 34992 kPa, m1 = 0.8018	890.56
298.27 K, 34993 kPa, m1 = 0.1348	830.61
298.27 K, 34993 kPa, m1 = 0.4768	862.15
298.27 K, 34996 kPa, m1 = 5.367	1231.68
298.27 K, 35014 kPa, m1 = 1.977	988.04
298.27 K, 39991 kPa, m1 = 1.039	912.9
298.27 K, 39994 kPa, m1 = 1.977	991.58
298.27 K, 39994 kPa, m1 = 5.367	1235.1
298.27 K, 39997 kPa, m1 = 0.4768	866.01
298.27 K, 39997 kPa, m1 = 0.8018	894.15
298.27 K, 40006 kPa, m1 = 0.1348	834.16
323.24 K, 207 kPa, m1 = 0.4768	808.23
323.24 K, 209 kPa, m1 = 0.1348	777.17
323.24 K, 209 kPa, m1 = 5.367	1172.87
323.24 K, 220 kPa, m1 = 1.039	855.22
323.24 K, 230 kPa, m1 = 1.977	931.65
323.24 K, 233 kPa, m1 = 0.8018	835.94
323.24 K, 4983 kPa, m1 = 0.8018	841.09
323.24 K, 4985 kPa, m1 = 0.4768	813.47
323.24 K, 4990 kPa, m1 = 0.1348	782.51
323.24 K, 4993 kPa, m1 = 1.977	936.57
323.24 K, 4994 kPa, m1 = 1.039	860.28
323.24 K, 4999 kPa, m1 = 5.367	1177.21
323.24 K, 9985 kPa, m1 = 1.977	941.48
323.24 K, 9994 kPa, m1 = 0.4768	818.67
323.24 K, 9997 kPa, m1 = 5.367	1181.61
323.24 K, 10002 kPa, m1 = 0.8018	846.25
323.24 K, 10003 kPa, m1 = 0.1348	787.77
323.24 K, 10005 kPa, m1 = 1.039	865.32
323.24 K, 14982 kPa, m1 = 0.4768	823.55
323.24 K, 14998 kPa, m1 = 1.977	946.2
323.24 K, 14999 kPa, m1 = 0.1348	792.71
323.24 K, 14999 kPa, m1 = 1.039	870.09
323.24 K, 15002 kPa, m1 = 0.8018	851.11
323.24 K, 15002 kPa, m1 = 5.367	1185.89
323.24 K, 19995 kPa, m1 = 0.4768	828.21
323.24 K, 19998 kPa, m1 = 5.367	1190.03
323.24 K, 19999 kPa, m1 = 0.8018	855.74
323.24 K, 19999 kPa, m1 = 1.977	950.72
323.24 K, 20000 kPa, m1 = 0.1348	797.39
323.24 K, 20003 kPa, m1 = 1.039	874.64
323.24 K, 24989 kPa, m1 = 0.8018	860.16
323.24 K, 24989 kPa, m1 = 1.977	955.05
323.24 K, 24989 kPa, m1 = 5.367	1194.06
323.24 K, 24990 kPa, m1 = 1.039	878.98
323.24 K, 24994 kPa, m1 = 0.1348	801.85
323.24 K, 24999 kPa, m1 = 0.4768	832.65
323.24 K, 29987 kPa, m1 = 0.4768	836.86
323.24 K, 29989 kPa, m1 = 0.8018	864.4
323.24 K, 29990 kPa, m1 = 1.977	959.23
323.24 K, 29993 kPa, m1 = 0.1348	806.09
323.24 K, 30001 kPa, m1 = 5.367	1197.99
323.24 K, 30007 kPa, m1 = 1.039	883.18
323.24 K, 34987 kPa, m1 = 5.367	1201.8
323.24 K, 34989 kPa, m1 = 1.039	887.17
323.24 K, 34998 kPa, m1 = 0.8018	868.48
323.24 K, 35001 kPa, m1 = 1.977	963.27
323.24 K, 35003 kPa, m1 = 0.4768	840.94
323.24 K, 35007 kPa, m1 = 0.1348	810.14
323.24 K, 39991 kPa, m1 = 1.039	891.04
323.24 K, 39994 kPa, m1 = 0.4768	844.83
323.24 K, 39995 kPa, m1 = 0.8018	872.4
323.24 K, 39995 kPa, m1 = 5.367	1205.55
323.24 K, 39997 kPa, m1 = 0.1348	814
323.24 K, 39997 kPa, m1 = 1.977	967.17
348.27 K, 305 kPa, m1 = 1.977	904.26
348.27 K, 308 kPa, m1 = 0.1348	752.15
348.27 K, 320 kPa, m1 = 0.4768	782.8
348.27 K, 328 kPa, m1 = 0.8018	810.17
348.27 K, 330 kPa, m1 = 1.039	829.39
348.27 K, 335 kPa, m1 = 5.367	1141.63
348.27 K, 4982 kPa, m1 = 5.367	1146.29
348.27 K, 4983 kPa, m1 = 0.4768	788.73
348.27 K, 4984 kPa, m1 = 1.977	909.72
348.27 K, 4989 kPa, m1 = 0.1348	758.25
348.27 K, 4994 kPa, m1 = 1.039	835.08
348.27 K, 4999 kPa, m1 = 0.8018	816.01
348.27 K, 9985 kPa, m1 = 1.977	915.25
348.27 K, 9992 kPa, m1 = 0.8018	821.86
348.27 K, 9992 kPa, m1 = 5.367	1151.14
348.27 K, 9993 kPa, m1 = 0.1348	764.3
348.27 K, 9998 kPa, m1 = 0.4768	794.7
348.27 K, 10000 kPa, m1 = 1.039	840.82
348.27 K, 14985 kPa, m1 = 0.4768	800.24
348.27 K, 14985 kPa, m1 = 0.8018	827.35
348.27 K, 14987 kPa, m1 = 1.039	846.22
348.27 K, 14992 kPa, m1 = 1.977	920.51
348.27 K, 14999 kPa, m1 = 0.1348	769.95
348.27 K, 15020 kPa, m1 = 5.367	1155.81
348.27 K, 19986 kPa, m1 = 1.977	925.5
348.27 K, 19989 kPa, m1 = 0.4768	805.48
348.27 K, 19994 kPa, m1 = 0.8018	832.56
